Data published in the supplement of paper PMC10307832.

Columns and labels:
Assay in all cases: relative viability (nuclei count vs DMSO), 5 days (fraction); higher = more cells survive
NCI-H1666 = tested on: NCI-H1666
How it was run: (§1)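 Relative viability is defined as nuclei in treated wells over nuclei in vehicle wells. Duplicate plates were run and medians reported. Lung cancer cell lines in 1536-well plates were dosed by pin tool one day after seeding, with one drug or with a fixed anchor-drug dose plus five library-drug doses (not always all listed) in √10 steps, and nuclei were counted after 5 days.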

NCI-H3122 = tested on: NCI-H3122
How it was run: as §1

NCI-H596 = tested on: NCI-H596
How it was run: as §1

HOP-62 = tested on: HOP-62
How it was run: as §1

NCI-H1355 = tested on: NCI-H1355
How it was run: as §1

BEN = tested on: BEN
How it was run: as §1

NCI-H647 = tested on: NCI-H647
How it was run: as §1

LU99A = tested on: LU99A
How it was run: as §1

ABC-1 = tested on: ABC-1
How it was run: as §1

PC-14 = tested on: PC-14
How it was run: as §1

NCI-H727 = tested on: NCI-H727
How it was run: as §1

NCI-H1792 = tested on: NCI-H1792
How it was run: as §1

NCI-H358 = tested on: NCI-H358
How it was run: as §1

EPLC-272H = tested on: EPLC-272H
How it was run: as §1

NCI-H2405 = tested on: NCI-H2405
How it was run: as §1

HCC-827 = tested on: HCC-827
How it was run: as §1

NCI-H1975 = tested on: NCI-H1975
How it was run: as §1

NCI-H838 = tested on: NCI-H838
How it was run: as §1

NCI-H2170 = tested on: NCI-H2170
How it was run: as §1

NCI-H322M = tested on: NCI-H322M
How it was run: as §1

NCI-H23 = tested on: NCI-H23
How it was run: as §1

O=c1[nH]c2ccccc2n1C1CCN(CCCC(c2ccc(F)cc2)c2ccc(F)cc2)CC1 [Pimozide] + NC(=O)Nc1cc(-c2cccc(F)c2)sc1C(=O)N[C@H]1CCCNC1 [AZD7762] (partner 0.2 µM)
relative viability (NCI-H1666; first compound 0.08 µM): 0.803
relative viability (NCI-H1666; first compound 0.253 µM): 0.831
relative viability (NCI-H1666; first compound 0.8 µM): 0.76
relative viability (NCI-H1666; first compound 2.53 µM): 0.747
relative viability (NCI-H1666; first compound 8 µM): 0.881
relative viability (NCI-H3122; first compound 0.08 µM): 0.977
relative viability (NCI-H3122; first compound 0.253 µM): 0.882
relative viability (NCI-H3122; first compound 0.8 µM): 0.963
relative viability (NCI-H3122; first compound 2.53 µM): 1.05
relative viability (NCI-H3122; first compound 8 µM): 0.825
relative viability (NCI-H596; first compound 0.08 µM): 1.17
relative viability (NCI-H596; first compound 0.253 µM): 1.31
relative viability (NCI-H596; first compound 0.8 µM): 1.31
relative viability (NCI-H596; first compound 2.53 µM): 1.19
relative viability (NCI-H596; first compound 8 µM): 1.04
relative viability (HOP-62; first compound 0.08 µM): 0.634
relative viability (HOP-62; first compound 0.253 µM): 0.477
relative viability (HOP-62; first compound 2.53 µM): 0.661
relative viability (HOP-62; first compound 8 µM): 0.517
relative viability (NCI-H1355; first compound 0.08 µM): 0.757
relative viability (NCI-H1355; first compound 0.253 µM): 0.732
relative viability (NCI-H1355; first compound 0.8 µM): 0.701
relative viability (NCI-H1355; first compound 2.53 µM): 0.641
relative viability (NCI-H1355; first compound 8 µM): 0.761
relative viability (BEN; first compound 0.08 µM): 0.762
relative viability (BEN; first compound 0.253 µM): 0.753
relative viability (BEN; first compound 0.8 µM): 0.618
relative viability (BEN; first compound 2.53 µM): 0.713
relative viability (BEN; first compound 8 µM): 0.886
relative viability (NCI-H647; first compound 0.08 µM): 0.46
relative viability (NCI-H647; first compound 0.253 µM): 0.26
relative viability (NCI-H647; first compound 0.8 µM): 0.245
relative viability (NCI-H647; first compound 2.53 µM): 0.409
relative viability (NCI-H647; first compound 8 µM): 0.532
relative viability (LU99A; first compound 0.08 µM): 0.399
relative viability (LU99A; first compound 0.8 µM): 0.333
relative viability (LU99A; first compound 2.53 µM): 0.31
relative viability (LU99A; first compound 8 µM): 0.398
relative viability (ABC-1; first compound 0.253 µM): 0.775
relative viability (ABC-1; first compound 0.8 µM): 0.817
relative viability (ABC-1; first compound 2.53 µM): 0.583
relative viability (ABC-1; first compound 8 µM): 0.509
relative viability (PC-14; first compound 0.253 µM): 0.348
relative viability (PC-14; first compound 0.8 µM): 0.271
relative viability (PC-14; first compound 2.53 µM): 0.328
relative viability (PC-14; first compound 8 µM): 0.402
relative viability (NCI-H727; first compound 0.08 µM): 0.496
relative viability (NCI-H727; first compound 0.253 µM): 0.581
relative viability (NCI-H727; first compound 0.8 µM): 0.596
relative viability (NCI-H727; first compound 2.53 µM): 0.613
relative viability (NCI-H727; first compound 8 µM): 0.525
relative viability (NCI-H1792; first compound 0.08 µM): 0.793
relative viability (NCI-H1792; first compound 0.253 µM): 0.733
relative viability (NCI-H1792; first compound 0.8 µM): 0.679
relative viability (NCI-H1792; first compound 2.53 µM): 0.748
relative viability (NCI-H1792; first compound 8 µM): 0.5
relative viability (NCI-H358; first compound 0.08 µM): 0.565
relative viability (NCI-H358; first compound 0.253 µM): 0.67
relative viability (NCI-H358; first compound 0.8 µM): 0.625
relative viability (NCI-H358; first compound 2.53 µM): 0.508
relative viability (NCI-H358; first compound 8 µM): 0.505
relative viability (EPLC-272H; first compound 0.08 µM): 0.229
relative viability (EPLC-272H; first compound 0.253 µM): 0.163
relative viability (EPLC-272H; first compound 0.8 µM): 0.265
relative viability (EPLC-272H; first compound 2.53 µM): 0.289
relative viability (EPLC-272H; first compound 8 µM): 0.282
relative viability (NCI-H2405; first compound 0.08 µM): 0.741
relative viability (NCI-H2405; first compound 0.253 µM): 0.716
relative viability (NCI-H2405; first compound 0.8 µM): 0.673
relative viability (NCI-H2405; first compound 2.53 µM): 0.608
relative viability (NCI-H2405; first compound 8 µM): 0.426
relative viability (HCC-827; first compound 0.253 µM): 0.2
relative viability (HCC-827; first compound 0.8 µM): 0.211
relative viability (HCC-827; first compound 2.53 µM): 0.236
relative viability (HCC-827; first compound 8 µM): 0.28
relative viability (NCI-H1975; first compound 0.08 µM): 0.691
relative viability (NCI-H1975; first compound 0.253 µM): 0.635
relative viability (NCI-H1975; first compound 0.8 µM): 0.684
relative viability (NCI-H1975; first compound 2.53 µM): 0.649
relative viability (NCI-H1975; first compound 8 µM): 0.766
relative viability (NCI-H838; first compound 0.08 µM): 0.937
relative viability (NCI-H838; first compound 0.253 µM): 0.946
relative viability (NCI-H838; first compound 0.8 µM): 0.908
relative viability (NCI-H838; first compound 2.53 µM): 0.938
relative viability (NCI-H838; first compound 8 µM): 0.966
relative viability (NCI-H2170; first compound 0.08 µM): 0.875
relative viability (NCI-H2170; first compound 0.253 µM): 0.828
relative viability (NCI-H2170; first compound 0.8 µM): 0.85
relative viability (NCI-H2170; first compound 2.53 µM): 0.915
relative viability (NCI-H2170; first compound 8 µM): 0.802
relative viability (NCI-H322M; first compound 0.08 µM): 0.502
relative viability (NCI-H322M; first compound 0.253 µM): 0.538
relative viability (NCI-H322M; first compound 0.8 µM): 0.58
relative viability (NCI-H322M; first compound 2.53 µM): 0.625
relative viability (NCI-H322M; first compound 8 µM): 0.387
relative viability (NCI-H23; first compound 0.08 µM): 0.248
relative viability (NCI-H23; first compound 0.253 µM): 0.315
relative viability (NCI-H23; first compound 0.8 µM): 0.195
relative viability (NCI-H23; first compound 2.53 µM): 0.167
relative viability (NCI-H23; first compound 8 µM): 0.213
